Measured values published in ChEMBL document CHEMBL4011590, “Structure-activity relationship studies on 3,5-dinitrophenyl tetrazoles as antitubercular agents” (Eur J Med Chem, 2017).
Converted amounts (≈) assume the structure as drawn.

Tests used:
[1] = test system: Lichtheimia corymbifera; experiment: Antifungal activity against Absidia corymbifera 272 after 24 hrs by broth microdilution method; assay type: functional; details: Lichtheimia corymbifera, 272, 24 h
[2] = test system: Pichia kudriavzevii; experiment: Antifungal activity against Candida krusei E28 after 24 hrs by broth microdilution method; assay type: functional; details: E28, 24 h
[3] = test system: Candida tropicalis; experiment: Antifungal activity against Candida tropicalis 156 after 24 hrs by broth microdilution method; assay type: functional; details: Candida tropicalis, 156, 24 h
[4] = test system: Trichophyton mentagrophytes; experiment: Antifungal activity against Trichophyton mentagrophytes 445 after 72 hrs by broth microdilution method; assay type: functional; details: Trichophyton mentagrophytes, 445, 72 h
[5] = test system: Nakaseomyces glabratus; experiment: Antifungal activity against Candida glabrata 20/I after 24 hrs by broth microdilution method; assay type: functional
[6] = test system: Trichosporon asahii; experiment: Antifungal activity against Trichosporon asahii 1188 after 24 hrs by broth microdilution method; assay type: functional; details: Trichosporon asahii, 1188, 24 h
[7] = test system: Aspergillus fumigatus; experiment: Antifungal activity against Aspergillus fumigatus 231 after 24 hrs by broth microdilution method; assay type: functional; details: Aspergillus fumigatus, 231, 24 h
[8] = test system: Candida albicans; experiment: Antifungal activity against Candida albicans ATCC 44859 after 24 hrs by broth microdilution method; assay type: functional; details: ATCC 44859, 24 h
[9] = test system: Mycobacterium avium; experiment: Antimycobacterial activity against Mycobacterium avium CNCTC My 330/80 after 21 days by micromethod; assay type: functional; details: CNCTC My 330/80, 504 h
[10] = test system: Mycobacterium tuberculosis; experiment: Antimycobacterial activity against Mycobacterium tuberculosis H37Rv CNCTC My 331/88 after 21 days by micromethod; assay type: functional; details: H37Rv CNCTC My 331/88, 504 h
[11] = test system: Mycobacterium kansasii; experiment: Antimycobacterial activity against Mycobacterium kansasii isolate 6509/96 after 14 days by micromethod; assay type: functional; details: isolate 6509/96, 336 h
[12] = test system: Mycobacterium kansasii; experiment: Antimycobacterial activity against Mycobacterium kansasii CNCTC My 235/80 after 7 days by micromethod; assay type: functional; details: CNCTC My 235/80, 168 h
[13] = test system: Mycobacterium kansasii; experiment: Antimycobacterial activity against Mycobacterium kansasii CNCTC My 235/80 after 14 days by micromethod; assay type: functional; details: CNCTC My 235/80, 336 h
[14] = test system: Mycobacterium kansasii; experiment: Antimycobacterial activity against Mycobacterium kansasii CNCTC My 235/80 after 21 days by micromethod; assay type: functional; details: CNCTC My 235/80, 504 h
[15] = test system: Mycobacterium kansasii; experiment: Antimycobacterial activity against Mycobacterium kansasii isolate 6509/96 after 21 days by micromethod; assay type: functional; details: isolate 6509/96, 504 h
[16] = test system: CHO-K1; experiment: Cytotoxicity against CHOK1 cells after 24 hrs by MTT assay; assay type: cell-based; details: Cricetulus griseus, CHO-K1, 24 h
[17] = test system: Mycobacterium kansasii; experiment: Antimycobacterial activity against Mycobacterium kansasii isolate 6509/96 after 7 days by micromethod; assay type: functional; details: isolate 6509/96, 168 h
[18] = test system: Mycobacterium avium; experiment: Antimycobacterial activity against Mycobacterium avium CNCTC My 330/80 after 14 days by micromethod; assay type: functional; details: CNCTC My 330/80, 336 h
[19] = test system: Mycobacterium tuberculosis; experiment: Antimycobacterial activity against Mycobacterium tuberculosis H37Rv CNCTC My 331/88 after 14 days by micromethod; assay type: functional; details: H37Rv CNCTC My 331/88, 336 h
[20] = test system: Staphylococcus aureus; experiment: Antibacterial activity against Staphylococcus aureus ATCC 6538 after 24 hrs by broth microdilution method; assay type: functional; details: ATCC 6538, 24 h
[21] = test system: Aspergillus fumigatus; experiment: Antifungal activity against Aspergillus fumigatus 231 after 48 hrs by broth microdilution method; assay type: functional; details: Aspergillus fumigatus, 231, 48 h
[22] = test system: Nakaseomyces glabratus; experiment: Antifungal activity against Candida glabrata 20/I after 48 hrs by broth microdilution method; assay type: functional
[23] = test system: Staphylococcus aureus; experiment: Antibacterial activity against methicillin-resistant Staphylococcus aureus HK5996/08 after 24 hrs by broth microdilution method; assay type: functional; details: HK5996/08, 24 h
[24] = test system: Staphylococcus epidermidis; experiment: Antibacterial activity against Staphylococcus epidermidis HK6966/08 after 24 hrs by broth microdilution method; assay type: functional; details: HK6966/08, 24 h
[25] = test system: Lichtheimia corymbifera; experiment: Antifungal activity against Absidia corymbifera 272 after 48 hrs by broth microdilution method; assay type: functional; details: Lichtheimia corymbifera, 272, 48 h
[26] = test system: Klebsiella pneumoniae; experiment: Antibacterial activity against Klebsiella pneumoniae HK11750/08 after 48 hrs by broth microdilution method; assay type: functional; details: HK11750/08, 48 h
[27] = test system: Pseudomonas aeruginosa; experiment: Antibacterial activity against Pseudomonas aeruginosa ATCC 9027 after 24 hrs by broth microdilution method; assay type: functional
[28] = test system: Pichia kudriavzevii; experiment: Antifungal activity against Candida krusei E28 after 48 hrs by broth microdilution method; assay type: functional; details: E28, 48 h
[29] = test system: Escherichia coli; experiment: Antibacterial activity against Escherichia coli ATCC 8739 after 24 hrs by broth microdilution method; assay type: functional
[30] = test system: Candida tropicalis; experiment: Antifungal activity against Candida tropicalis 156 after 48 hrs by broth microdilution method; assay type: functional; details: Candida tropicalis, 156, 48 h
[31] = test system: Trichophyton mentagrophytes; experiment: Antifungal activity against Trichophyton mentagrophytes 445 after 120 hrs by broth microdilution method; assay type: functional; details: Trichophyton mentagrophytes, 445, 120 h
[32] = test system: Escherichia coli; experiment: Antibacterial activity against Escherichia coli ATCC 8739 after 48 hrs by broth microdilution method; assay type: functional; details: ATCC 8739, 48 h
[33] = test system: Staphylococcus aureus; experiment: Antibacterial activity against methicillin-resistant Staphylococcus aureus HK5996/08 after 48 hrs by broth microdilution method; assay type: functional; details: HK5996/08, 48 h
[34] = test system: Candida albicans; experiment: Antifungal activity against Candida albicans ATCC 44859 after 48 hrs by broth microdilution method; assay type: functional; details: ATCC 44859, 48 h
[35] = test system: Pseudomonas aeruginosa; experiment: Antibacterial activity against Pseudomonas aeruginosa ATCC 9027 after 48 hrs by broth microdilution method; assay type: functional; details: ATCC 9027, 48 h
[36] = test system: Klebsiella pneumoniae; experiment: Antibacterial activity against extended spectrum beta-lactamase producing Klebsiella pneumoniae HK14368/08 after 24 hrs by broth microdilution method; assay type: functional
[37] = test system: Staphylococcus epidermidis; experiment: Antibacterial activity against Staphylococcus epidermidis HK6966/08 after 48 hrs by broth microdilution method; assay type: functional; details: HK6966/08, 48 h
[38] = test system: Enterococcus sp.; experiment: Antibacterial activity against Enterococcus sp. HK14365/08 after 48 hrs by broth microdilution method; assay type: functional; details: HK14365/08, 48 h
[39] = test system: Klebsiella pneumoniae; experiment: Antibacterial activity against Klebsiella pneumoniae HK11750/08 after 24 hrs by broth microdilution method; assay type: functional
[40] = test system: Trichosporon asahii; experiment: Antifungal activity against Trichosporon asahii 1188 after 48 hrs by broth microdilution method; assay type: functional; details: Trichosporon asahii, 1188, 48 h
[41] = test system: Enterococcus sp.; experiment: Antibacterial activity against Enterococcus sp. HK14365/08 after 24 hrs by broth microdilution method; assay type: functional; details: HK14365/08, 24 h
[42] = test system: Klebsiella pneumoniae; experiment: Antibacterial activity against extended spectrum beta-lactamase producing Klebsiella pneumoniae HK14368/08 after 48 hrs by broth microdilution method; assay type: functional; details: HK14368/08, 48 h
[43] = test system: Staphylococcus aureus; experiment: Antibacterial activity against Staphylococcus aureus ATCC 6538 after 48 hrs by broth microdilution method; assay type: functional; details: ATCC 6538, 48 h

Molecule: C[C@@H]1[C@H](O)[C@@H](C)/C=C/C=C/C=C/C=C/C=C/C=C/C=C/[C@H](O[C@@H]2O[C@H](C)[C@@H](O)[C@H](N)[C@@H]2O)C[C@@H]2O[C@](O)(C[C@@H](O)C[C@@H](O)[C@H](O)CC[C@@H](O)C[C@@H](O)CC(=O)O[C@H]1C)C[C@H](O)[C@H]2C(=O)O [AMPHOTERICIN B]
- MIC [1]: 1 µM (≈ 0.924 µg/mL)
- MIC [2]: 1 µM (≈ 0.924 µg/mL)
- MIC [3]: 0.54 µM (≈ 0.499 µg/mL)
- MIC [4]: 0.54 µM (≈ 0.499 µg/mL)
- MIC [5]: 0.54 µM (≈ 0.499 µg/mL)
- MIC [6]: 0.27 µM (≈ 0.25 µg/mL)
- MIC [7]: 0.54 µM (≈ 0.499 µg/mL)
- MIC [8]: 0.54 µM (≈ 0.499 µg/mL)

Molecule: O=[N+]([O-])c1cc(-c2nnn(CSc3nnnn3C3CCCCC3)n2)cc([N+](=O)[O-])c1
- MIC99 [9]: 16 µM (≈ 6.92 µg/mL)
- MIC99 [10]: 0.03 µM (≈ 0.013 µg/mL)
- MIC99 [11]: 0.03 µM (≈ 0.013 µg/mL)
- MIC99 [12]: 0.06 µM (≈ 0.0259 µg/mL)
- MIC99 [13]: 0.06 µM (≈ 0.0259 µg/mL)
- MIC99 [14]: 0.06 µM (≈ 0.0259 µg/mL)
- MIC99 [15]: 0.03 µM (≈ 0.013 µg/mL)
- IC50 [16]: 140 µM
- MIC99 [17]: 0.03 µM (≈ 0.013 µg/mL)
- MIC99 [18]: 8 µM (≈ 3.46 µg/mL)
- MIC99 [19]: 0.03 µM (≈ 0.013 µg/mL)

Molecule: O=[N+]([O-])c1cc(-c2nnn(CSc3nnnn3-c3ccccc3)n2)cc([N+](=O)[O-])c1
- MIC [20]: > 125 µM
- MIC [21]: > 125 µM
- MIC [1]: > 125 µM
- MIC [22]: > 125 µM
- MIC99 [10]: 0.25 µM (≈ 0.107 µg/mL)
- MIC [23]: > 125 µM
- MIC99 [11]: 1 µM (≈ 0.426 µg/mL)
- MIC [24]: > 125 µM
- MIC [25]: > 125 µM
- MIC [26]: > 125 µM
- MIC ([27]; ATCC 9027, 24 h): > 125 µM
- MIC [28]: > 125 µM
- MIC [2]: > 125 µM
- MIC99 [12]: 1 µM (≈ 0.426 µg/mL)
- MIC [3]: > 125 µM
- MIC ([29]; ATCC 8739, 24 h): > 125 µM
- MIC [30]: > 125 µM
- MIC [31]: > 125 µM
- MIC [32]: > 125 µM
- MIC [33]: > 125 µM
- MIC99 [13]: 2 µM (≈ 0.853 µg/mL)
- MIC99 [14]: 4 µM (≈ 1.71 µg/mL)
- MIC [34]: > 125 µM
- MIC99 [15]: 2 µM (≈ 0.853 µg/mL)
- MIC [4]: > 125 µM
- MIC [5]: > 125 µM
- MIC [6]: > 125 µM
- MIC [35]: > 125 µM
- MIC ([36]; HK14368/08, 24 h): > 125 µM
- MIC [7]: > 125 µM
- MIC [37]: > 125 µM
- MIC [8]: > 125 µM
- MIC99 [17]: 0.5 µM (≈ 0.213 µg/mL)
- MIC [38]: > 125 µM
- MIC ([39]; HK11750/08, 24 h): > 125 µM
- MIC [40]: > 125 µM
- MIC [41]: > 125 µM
- MIC99 [19]: 0.125 µM (≈ 0.0533 µg/mL)
- MIC [42]: > 125 µM
- MIC [43]: > 125 µM

Molecule: OC(Cn1cncn1)(Cn1cncn1)c1ccc(F)cc1F [FLUCONAZOLE]
- MIC [1]: > 500 µM
- MIC [2]: 105 µM (≈ 32.2 µg/mL)
- MIC [3]: 1.6 µM (≈ 0.49 µg/mL)
- MIC [4]: 105 µM (≈ 32.2 µg/mL)
- MIC [6]: 210 µM (≈ 64.3 µg/mL)
- MIC [7]: > 500 µM
- MIC [8]: 0.82 µM (≈ 0.251 µg/mL)

Molecule: GENTAMICIN
- MIC [27]: 1 µM
- MIC [29]: 0.26 µM
- MIC [36]: 0.26 µM
- MIC [39]: 0.26 µM
